Test results taken from patent US10357481B2 (MERCK SHARP & DOHME CORP., priority 2015, dated 2019).

target: T1, human PDE2A1 (Homo sapiens, UniProt O00408); test: IMAP FP PDE selectivity panel, human PDE2A1; assay type: biochemical; settings: Lab B; read-out: Human PDE2 Ki (nM) Lab B
T1 construct: GST; purchased BPS Bioscience (San Diego, Calif.) 60020; host or cells: insect cells
Procedure, shortened: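 Human PDE2A1 tested alongside PDE1–11 by IMAP fluorescence polarization at room temperature. Substrate was 50 nM FAM-cAMP plus 1000 nM cGMP, buffer pH 7.2 with MgCl2 and DTT, enzyme set for 20% conversion. Ten 3-fold compound dilutions; 60 min reaction, then IMAP binding solution, 1 h, parallel/perpendicular fluorescence read.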

T1 sequence (O00408 1-920 isoform O00408-2): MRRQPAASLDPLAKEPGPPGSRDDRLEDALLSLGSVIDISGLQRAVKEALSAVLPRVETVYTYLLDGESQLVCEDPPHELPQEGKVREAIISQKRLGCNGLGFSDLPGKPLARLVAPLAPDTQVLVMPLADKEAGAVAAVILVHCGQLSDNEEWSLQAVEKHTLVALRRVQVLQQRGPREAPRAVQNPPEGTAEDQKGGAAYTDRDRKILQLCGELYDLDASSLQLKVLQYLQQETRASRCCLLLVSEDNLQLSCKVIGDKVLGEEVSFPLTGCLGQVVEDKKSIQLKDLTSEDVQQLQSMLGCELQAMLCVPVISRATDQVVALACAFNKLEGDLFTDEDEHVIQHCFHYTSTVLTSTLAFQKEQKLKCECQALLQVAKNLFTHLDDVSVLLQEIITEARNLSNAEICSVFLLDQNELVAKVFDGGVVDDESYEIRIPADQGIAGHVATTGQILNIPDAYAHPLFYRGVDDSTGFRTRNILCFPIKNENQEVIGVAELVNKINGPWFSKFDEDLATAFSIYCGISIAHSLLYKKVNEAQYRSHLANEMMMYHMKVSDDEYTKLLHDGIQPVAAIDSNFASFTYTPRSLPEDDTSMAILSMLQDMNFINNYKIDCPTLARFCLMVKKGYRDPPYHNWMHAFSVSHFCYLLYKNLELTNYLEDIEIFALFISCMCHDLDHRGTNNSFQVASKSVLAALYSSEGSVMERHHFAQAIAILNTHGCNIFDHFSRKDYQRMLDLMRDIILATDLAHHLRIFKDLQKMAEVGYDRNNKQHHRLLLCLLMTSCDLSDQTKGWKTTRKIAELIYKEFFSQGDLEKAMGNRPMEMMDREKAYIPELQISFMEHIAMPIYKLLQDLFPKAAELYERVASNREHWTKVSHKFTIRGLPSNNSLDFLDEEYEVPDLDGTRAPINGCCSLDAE

Row | Ki [nM] | SMILES
1 | 91 | Cc1cc(NC2(c3ccc(C(F)(F)F)c(F)c3)CC2)n2nc(C)nc2n1 [Example 192, N-(1-(3-Fluoro-4-(trifluoromethyl)phenyl)cyclopropyl)-2,5-dimethyl-[1,2,4]triazolo [1,5-a]pyrimidin-7-amine]
2 | 17 | Cc1cc(N[C@@H](c2ccc(OC(F)F)cc2)C(C)(C)C)n2ncnc2n1 [Example 33, N-{(1R)-1-[4-(Difluoromethoxy)phenyl]-2,2-dimethylpropyl}-5-methyl[1,2,4]triazolo[1,5-a] pyrimidin-7-amine]
3 | 2.7 | Fc1cc(C2(Nc3cc(Cl)nc4ncnn34)CC2)ccc1C(F)(F)F [Example 208, 5-Chloro-N-(1-(3-fluoro-4-(trifluoromethyl)phenyl)cyclopropyl)-[1,2,4]triazolo [1,5-a]pyrimidin-7-amine]
4 | 102 | CC(C)(O)[C@@H](Nc1cc(CO)cc2ncnn12)c1ccc(OC(F)(F)F)cc1F [Example 273, (1S)-1-[2-Fluoro-4-(trifluoromethoxy)phenyl]-1-{[7-(hydroxymethyl)[1,2,4]triazolo [1,5-a]pyridin-5-yl]amino}-2-methylpropan-2-ol]
5 | 17 | Cc1cc(N[C@@H](c2ccc(C(F)(F)F)cc2)C(C)(C)O)n2ncnc2n1 [Example 94, (1S)-2-Methyl-1-[(5-methyl [1,2,4]triazolo[1,5-a]pyrimidin-7-yl)amino]-1-[4-(trifluoromethyl)phenyl]propan-2-ol]
6 | 49 | Cc1cc(N[C@@H](c2ccc(C(F)(F)F)c(F)c2)C2CC2)n2ncnc2n1 [Example 39, N-{(R)-Cyclopropyl[3-fluoro-4-(trifluoromethyl)phenyl]methyl}-5-methyl[1,2,4]triazolo[1,5-a] pyrimidin-7-amine]
7 | > 2960 | Cc1cc(N[C@H](c2ccc(OC(F)(F)F)c(F)c2)C(C)(C)O)n2ncnc2n1 (single isomer, unassigned) [Example 91]
8 | 161 | Cc1cc(NC(C)(C)c2ccc(C(F)(F)F)cc2Cl)n2ncnc2n1 [Example 47, N-{1-[2-Chloro-4-(trifluoromethyl)phenyl]-1-methylethyl}-5-methyl [1,2,4]triazolo[1,5-a]pyrimidin-7-amine]
9 | 7.1 | Cc1cc(N[C@@H](c2ccc(OC(F)(F)F)c(F)c2)C(C)(C)C)n2ncnc2n1 [Example 28, N-{(1R)-1-[3-Fluoro-4-(trifluoromethoxy)phenyl]-2,2-dimethylpropyl}-5-methyl[1,2,4]triazolo[1,5-a] pyrimidin-7-amine]
10 | > 2960 | CC(C)(O)C(Nc1cc(C2CC2)nc2ncnn12)c1ccc(OC(F)(F)F)c(F)c1 (single isomer, unassigned) [Example 140, (1S or R)-1-[(5- Cyclopropyl [1,2,4]triazolo [1,5-a]pyrimidin-7-yl)amino]-1-[3-fluoro-4-(trifluoro-methoxy)phenyl]-2-methylpropan-2-ol]
11 | 10 | Fc1cc(C2(Nc3cc(C(F)(F)F)nc4ncnn34)CC2)ccc1C(F)(F)F [Example 82, N-{1-[3-Fluoro-4-(trifluoromethyl)phenyl]cyclopropyl}-5-(trifluoromethyl)-[1,2,4]triazolo[1,5-a]pyrimidin-7-amine]
12 | 377 | CN(C)c1cc(N[C@@H](c2ccc(C(F)(F)F)c(F)c2)C(C)(C)O)n2ncnc2n1 (single isomer, unassigned) [Example 244]
13 | 13 | Cc1cc(N[C@@H](c2ccc(S(F)(F)(F)(F)F)cc2)C(C)C)n2ncnc2n1 [Example 22, 5-Methyl-N-{(1R)-2-methyl-1-[4-(pentafluoro-λ^6-sulfanyl)phenyl]propyl}[1,2,4]triazolo[1,5-a] pyrimidin-7-amine]
14 | 183 | Cc1cc(N[C@H](c2ccc(C(F)(F)F)c(F)c2)C(C)(C)O)nc2ncnn12 (single isomer, unassigned) [Example 291]
15 | 83 | Cc1cc(NC2(c3ccc(C(F)(F)F)c(F)c3)COC2)n2ncnc2n1 [Example 198, N-(3-(3-Fluoro-4-(trifluoromethyl)phenyl)oxetan-3-yl)-5-methyl-[1,2,4]triazolo [1,5-a]pyrimidin-7-amine]
16 | 19 | CC(C)(C)c1ccc(C(Nc2cc(C(F)(F)F)nc3ncnn23)C(C)(C)O)cc1 (single isomer, unassigned) [Example 161, (1S or S)-1-(4-tert-Butylphenyl)-2-methyl-1-{[5-(trifluoromethyl) [1,2,4]triazolo [1,5-a]pyrimidin-7-yl]amino} propan-2-ol]
17 | 92 | OCc1cc(NC2(c3ccc(C(F)(F)F)c(F)c3)CC2)n2ncnc2n1 [Example 78, [7-({1-[3-Fluoro-4-(trifluoromethyl)phenyl]cyclopropyl}amino)[1,2,4]triazolo[1,5-a]pyrimidin-5-yl]methanol]

Row | Ki [nM] | SMILES
18 | 436 | CC(C)c1cc(NC(c2ccc(OC(F)(F)F)cc2F)C(C)(C)O)n2ncnc2n1 (single isomer, unassigned) [Example 137, (1R or S)-1-[2-Fluoro-4-(trifluoro-methoxy)phenyl]-2-methyl-1-{[5-(1-methylethyl) [1,2,4]triazolo [1,5-a]pyrimidin-7-yl]amino} propan-2-ol]
19 | 81 | Cc1cc(NC2(c3ccc(C(C)(C)C)cc3)CC2)n2ncnc2n1 [Example 61, N-{1-[4-(tert-Butyl)phenyl]cyclopropyl}5-methyl-[1,2,4]triazolo[1,5-a]pyrimidin-7-amine]
20 | 77 | Cc1cc(NC2(c3ccc(C(F)(F)F)cc3)CCC2)n2ncnc2n1 [Example 64, 5-Methyl-N-{1-[4-(trifluoromethyl)phenyl]cyclobutyl}[1,2,4]triazolo [1,5-a]pyrimidin-7-amine]
21 | 252 | CCC(O)(CC)C(Nc1cc(C(F)(F)F)nc2ncnn12)c1ccc(C(F)(F)F)c(F)c1 (single isomer, unassigned) [Example 219, (R)- or (S)-3-((3-Fluoro-4-(trifluoromethyl)phenyl)(5-(trifluoromethyl)-[1,2,4]triazolo [1,5-a]pyrimidin-7-ylamino)methyl) pentan-3-ol]
22 | 24 | Cc1cc(N[C@@H](c2ccc(C(F)(F)F)c(F)c2)C(C)(C)C)n2nc(C3CC3)nc2n1 [Example 205, (R)-2-Cyclopropyl-N-(1-(3-fluoro-4-(trifluoromethyl)phenyl)-2,2-dimethylpropyl)-5-methyl-[1,2,4]triazolo [1,5-a]pyrimidin-7-amine]
23 | 905 | Cc1cc(NC(c2ccc(C(F)F)cc2)C(C)(C)O)n2ncnc2n1 (single isomer, unassigned) [Example 109, (1R or S)-1-[4-(Difluoromethyl)phenyl]-2-methyl-1-[(5-methyl [1,2,4]triazolo [1,5-a]pyrimidin-7-yl)amino] propan-2-ol]
24 | > 2960 | CC(C)(O)C(Nc1cc(C(F)F)nc2ncnn12)c1ccc(OC(F)(F)F)c(F)c1 (single isomer, unassigned) [Example 188, (1R or S)-{[5-(Difluoromethyl) [1,2,4]triazolo [1,5-a]pyrimidin-7-yl]amino}-1-[3-fluoro-4-(trifluoromethoxy)phenyl]-2-methylpropan-2-ol]
25 | 9.9 | Cc1cc(N[C@@H](c2ccc(C3CC3)cc2F)C(C)C)n2ncnc2n1 [Example 25, N-[(1R)-1-(4-Cyclopropyl-2-fluorophenyl)-2-methylpropyl]-5-methyl[1,2,4]triazolo[1,5-a] pyrimidin-7-amine]
26 | 29 | CC(C)(O)C(Nc1cc(C(F)(F)F)nc2ncnn12)c1ccc(C(F)(F)F)cc1F (single isomer, unassigned) [Example 174, (1R or S)-1-[2-Fluoro-4-(trifluoromethyl)phenyl]-2-methyl-1-{[5-(trifluoromethyl) [1,2,4]triazolo [1,5-a]pyrimidin-7-yl]amino} propan-2-ol]
27 | 109 | Fc1cc(C2(Nc3cc(C(F)(F)C(F)(F)F)nc4ncnn34)CC2)ccc1C(F)(F)F [Example 74, N-{1-[3-Fluoro-4-(trifluoromethyl)phenyl]cyclopropyl}-5-(pentafluoroethyl) [1,2,4]triazolo[1,5-a]pyrimidin-7-amine]
28 | 184 | Cc1cc(N[C@@H](c2ccc(C(F)(F)F)c(F)c2)C(C)(C)C)n2nc(CO)nc2n1 [Example 206, (R)-(7-(1-(3-Fluoro-4-(trifluoromethyl)phenyl)-2,2-dimethylpropylamino)-5-methyl-[1,2,4]triazolo [1,5-a]pyrimidin-2-yl)methanol]
29 | 41 | CC(C)(O)[C@@H](Nc1cc(C(F)F)cc2ncnn12)c1ccc(OC(F)(F)F)c(F)c1 [Example 279, (S)-1-((7-(Difluoromethyl)-[1,2,4]triazolo[1,5-a]pyridin-5-yl)amino)-1-(3-fluoro-4-(trifluoromethoxy)phenyl)-2-methylpropan-2-ol]
30 | 38 | Cc1cc(NC(c2ccc(C(F)(F)F)cc2Cl)C(C)(C)O)n2ncnc2n1 (single isomer, unassigned) [Example 105, (1R or S)-1-[2-Chloro-4-(trifluoromethyl)phenyl]-2-methyl-1-[(5-methyl[1,2,4]triazolo[1,5-a]pyrimidin-7-yl)amino]propan-2-ol]
31 | 6.6 | Cc1cc(N[C@@H](c2ccc(OC(F)(F)F)cc2)C(C)(C)C)n2ncnc2n1 [Example 32, N-{(1R)-2,2-Dimethyl-1-[4-(trifluoromethoxy)phenyl]propyl}-5-methyl[1,2,4]triazolo[1,5-a] pyrimidin-7-amine]
32 | 37 | CC(C)(O)C(Nc1cc(C2CC2)nc2ncnn12)c1ccc(C(F)(F)F)cc1 (stereo in doubt) [Example 157, (1S)-1-[(5-Cyclopropyl[1,2,4]triazolo[1,5-a]pyrimidin-7-yl)amino]-2-methyl-1-[4-(trifluoromethyl)phenyl]propan-2-ol]
33 | 48 | Cc1cc(N[C@H](C)c2ccc(C3CC3)c(F)c2)n2ncnc2n1 [Example 14, N-[(1R)-1-(4-Cyclopropyl-3-fluorophenyl)ethyl]-5-methyl[1,2,4]triazolo[1,5-a] pyrimidin-7-amine]
